Test results as given in US8507463B2, “Nucleotide analogue prodrug and the preparation thereof” (Jiangsu Chia Tai Tianqing Pharmaceutical Co., Ltd., priority 2005, dated 2013).
Where two headings read alike, the source gives them in different places.

Key:
[1] = human, cited from earlier work
BEAGLE dogs = assay: Long term toxicity test (kidney function); format: in vivo; settings: 6 months
Method: BEAGLE dogs as animal models, Adefovir Dipivoxil as control sample, long term toxicity of TD crystalline form A was investigated, especially the effects of TD crystalline form A on kidney function was investigated.
30 BEAGLE dogs were randomly divided into 5 groups, 6 dogs per group. One group as blank control group, three groups as low dosing, medium dosing and high dosing group of TD crystalline form A respectively. The dosage of low dosing group was 5 mg/kg once per day, the dosage of medium dosing group was 15 mg/kg once per day and the dosage of high dosing group was 45 mg/kg once per day. The remaining group was Adefovir Dipivoxil control group, dosed at 40 mg/kg once per day.
Drugs mixed with salad oil were administered to the animals for 6 months consecutively, then observed for 21 consecutive days after drug withdrawal.

Duck Hepatitis B Virus = assay: Anti-viral (anti-HBV) test in vivo, DHBV-DNA level by PCR; design: species or system GaoYou pockmark ducks; settings: ducks, 15 mg/ml group, once a day; day 0 level as base line of 100
Method: Two-month old pockmark ducks vertically infected with Duck Hepatitis B Virus were selected as animal models to conduct anti-HBV test in vivo, the efficacy was investigated. 80 GaoYou pockmark ducks were divided randomly into. 8 groups, 10 ducks per groups, three groups were given TD fumarate at the dosage of 5, 15, 45 mg/kg once a day respectively, other three groups were given Tenofovir Disoproxil Fumarate at the dosage of 5, 15, 45 mg/kg once a day respectively, other one group was given Adefovir Dipivoxil at the dosage of 15 mg/kg once a day and the remaining group was blank control group. All the groups were administered for 28 days, and blood samples were taken every 7 days to determine the inhibitory effect to the DHBV-DNA level by PCR, inhibition rate was listed in the following table.

[2] = Light exposure test (4500±500 Lx); format: physicochemical; settings: light 4500±500 Lx
Source text: Samples were evenly spread out and placed in open culture dishes and the thickness thereof was less than 5 mm, then distances were adjusted until the illumination intensity was 4500±500 Lx, samples were taken on the fifth and tenth day respectively for determination, compared with the result of day 0, results were listed in the table below: […]

[3] = Acute toxicity test, median lethal dose (LD50); settings: both sexes, mouse, in vivo, oral, mice, infused into the stomach, observed 14 days
Method: TD fumarate and TD crystalline form A were dissolved in 0.1M citric acid aqueous solution respectively, 140 healthy mice with 18˜22 g body-weight was selected, randomly divided into 14 groups, 10 per group, and the number of male and female mice were equal.
Following the preliminary test, TD fumarate and TD crystalline form A were administered to 7 different dosing groups by infusing into the stomach, observed for 14 days consecutively to investigate the toxic reaction and death cases of mice and then LD50 was calculated.

[4] = High humidity test (room temperature, relative humidity 75±5%); format: physicochemical; settings: 25° C.
Method: Samples were evenly spread out and placed in open culture dishes, wherein the thickness thereof was less than 5 mm, put in a thermostatic drying chamber at room temperature (25° C.) with relative humidity of 75±5%. Then the samples were taken on the fifth and tenth day respectively for determination, compared with the result of day 0, results were listed in the table below

[5] = Stability analysis, overall conclusion in words; format: physicochemical; settings: from light, high temperature, high humidity and acceleration tests
[6] = format: physicochemical
[7] = Acceleration test (40° C., relative humidity 75%); format: physicochemical
Method: Samples were sealed with polyethylene plastic bags, placed in the thermostatic drying chamber at 40±2° C. with relative humidity of 75±5% for 3 months. Then the samples were taken at the end of the first, second and third month respectively for determination, compared with the result of day 0, results were listed in the table below: […]

[8] = High temperature test (60° C.); format: physicochemical; settings: sealed ampoules
Method: Samples were sealed in clean glass ampoules and put in 60° C. thermostatic drying chamber, then they were taken on the fifth and tenth day respectively for determination, compared with the result of day 0, results were listed in the table below:
Samples were sealed in clean glass ampoules and put in 60° C. thermostatic drying chamber, then they were taken on the fifth and tenth day respectively for determination, compared with the result of day 0, results were listed in the table below

[9] = BEAGLE dogs, 40 mg/kg once per day

CC(C)(C)C(=O)OCOP(=O)(COCCn1cnc2c(N)ncnc21)OCOC(=O)C(C)(C)C [Adefovir Dipivoxil]
adverse reaction and renal dysfunction ([1]; 50 mg/day and 30 mg/day): higher incidence | nephrotoxicity in clinical trials ([1]; recent clinical trials): observed | levels of serum carnine and urea nitrogen, in words (BEAGLE dogs; [9]): significantly higher | urea nitrogen (BEAGLE dogs; [9]): 24.7 ± 1.35 mmol/L | DHBV-DNA level, First week (Duck Hepatitis B Virus): 85 ± 7 | DHBV-DNA level, Fourth week (Duck Hepatitis B Virus): 33 ± 6 | DHBV-DNA level, Second week (Duck Hepatitis B Virus): 70 ± 6 | DHBV-DNA level, Third week (Duck Hepatitis B Virus): 55 ± 7

C[C@H](Cn1cnc2c(N)ncnc21)OCP(=O)(OCOC(=O)C(C)(C)C)OCOC(=O)C(C)(C)C [TD crystalline form A, 9-[2-(R)-[bis[pivaloyloxymethoxy]-phosphinylmethoxy]propyl]adenine]
content (%) ([2]; day 0): 98.7% | content (%) ([2]; day 5): 98.3% | content (%) ([2]; day 10): 98.5% | LD50 at 14 days ([3]; read-out: LD50): 4310 mg/kg | LD50 at 14 days ([3]; read-out: LD50, 95% confident limit): 2830 to 5440 mg/kg | content (%) ([4]; day 0): 99.7% | Weight gain after moisture absorption (%) ([4]; day 5): 4.3% | content (%) ([4]; day 5): 98.5% | Weight gain after moisture absorption (%) ([4]; day 10): 5.6% | content (%) ([4]; day 10): 97.2% | urea nitrogen (BEAGLE dogs; BEAGLE dogs, 5 mg/kg once per day): 17.1 ± 1.32 mmol/L | urea nitrogen (BEAGLE dogs; BEAGLE dogs, 15 mg/kg once per day): 14.2 ± 1.20 mmol/L | urea nitrogen (BEAGLE dogs; BEAGLE dogs, 45 mg/kg once per day): 15.7 ± 1.08 mmol/L | hematological, blood and urine biochemical parameters versus blank control group, in words (BEAGLE dogs; BEAGLE dogs, 5, 15 and 45 mg/kg once per day): no significant differences | stability, overall conclusion in words [5]: good stabilities | solubility conclusion, 0.1N HCl ([6]; 0.1N HCl): soluble | solubility conclusion, 0.1N NaOH ([6]; 0.1N NaOH): slightly | solubility conclusion, anhydrous ethanol ([6]; anhydrous ethanol): freely soluble | solubility conclusion, methanol ([6]; methanol): freely soluble | amount of solvent (ml), 0.1N HCl ([6]; to dissolve 1 g of sample, 0.1N HCl): 33.5 mL | amount of solvent (ml), 0.1N NaOH ([6]; to dissolve 1 g of sample, 0.1N NaOH): 910 mL | amount of solvent (ml), anhydrous ethanol ([6]; to dissolve 1 g of sample, anhydrous ethanol): 5.0 mL | amount of solvent (ml), methanol ([6]; to dissolve 1 g of sample, methanol): 1.4 mL | amount of solvent (ml), water ([6]; to dissolve 1 g of sample, water): 880 mL | solubility conclusion, water ([6]; water): soluble | content (%) ([7]; end of month 1): 93.1% | content (%) ([7]; end of month 2): 90.5% | content (%) ([7]; end of month 3): 86.3% | content (%) ([7]; month 0): 99.7% | content (%) ([8]; day 0): 99.1% | content (%) ([8]; day 5): 98.6% | content (%) ([8]; day 10): 98.4%
